{
  "source": "patent US20140234405A1",
  "about": "(priority 2013, published 2014)",
  "origin": "cited, not measured here",
  "key": {"type 2 diabetes": {"tested_on": "type 2 diabetes", "conditions": "12 weeks, cited from earlier work"}, "[1]": {"tested_on": "human pancreatic ductal tissue", "conditions": "in vitro, without epidermal growth factor; cited from earlier work"}, "beta cell mass": {"tested_on": "beta cell mass", "conditions": "after infusion of gastrin in rats; cited from earlier work"}, "gastrin": {"tested_on": "gastrin", "conditions": "90 mg/day for 6 years or greater; cited from earlier work"}},
  "note": "No end group written: not given here.",
  "data": [
    {"molecule": "COc1ccc2nc([S@@+]([O-])Cc3ncc(C)c(OC)c3C)[nH]c2c1", "note": "[esomeprazole]", "values": [
      {"measurement": "insulin secretion, glycaemic control, cardiovascular disease biomarkers", "setting": "type 2 diabetes; patients with type 2 diabetes", "result": "did not improve"},
      {"measurement": "change in insulin AUC", "setting": "type 2 diabetes; control group had 16.3% reduction", "result": "no decline in insulin AUC"},
      {"measurement": "increase in area under the curve (AUC) of gastrin", "setting": "type 2 diabetes; 20 type 2 diabetes patients, 40 mg", "result": 9, "unit": "fold"}
    ]},
    {"molecule": "gastrin: gastrointestinal hormone demonstrated to result in new beta cell formation (QGPWLEEEEEAYGWMDF; ends and bridges not checked; UniProt P01350 76-92, looked up)", "values": [
      {"measurement": "beta cell neogenesis from human pancreatic ductal tissue", "setting": "[1]", "result": "induce beta cell neogenesis"},
      {"measurement": "beta cell mass", "setting": "beta cell mass", "result": "doubling beta cell mass"}
    ]},
    {"molecule": "Cc1c(OCC(F)(F)F)ccnc1C[S+]([O-])c1nc2ccccc2[nH]1", "note": "(stereo not shown) [Lansoprazole, 1H-Benzimidazole,2-[[[3-methyl-4-(2,2,2-trifluoroethoxy)-2-pyridinyl]methyl]sulfinyl]-2-[[[3-Methyl-4-(2,2,2-trifluoroethoxy)-2-pyridyl]-methyl]sulfinyl]benzimidazole]", "values": [
      {"measurement": "gastrin levels relative to normal", "setting": "gastrin", "result": "~7", "unit": "fold"},
      {"measurement": "safety profile", "setting": "gastrin", "result": "sustained safety profile"}
    ]}
  ]
}
